Measurements published in patent publication US7504433B2, “Thiophene derivative PPAR modulators” (Eli Lilly and Company, priority 2003, dated 2009).

melting point: 126.2 to 132.6 °C
SMILES: Cc1cc(OC[C@@H](C)c2sc(-c3ccc(C(F)(F)F)cc3)cc2C)ccc1CCC(=O)O (single isomer, unassigned) [Example 16, 3-(2-Methyl-4-{2-[3-methyl-5-(4-trifluoromethylphenyl)thiophen-2-yl]propoxy}-phenyl)propionic acid]
